Data published in US8642554B2, “Smac mimetic dimers and trimers useful as anti-cancer agents” (Joyant Pharmaceuticals, Inc., priority 2007, dated 2014).

Legend:
HCC461 cells = assay: Cell viability assay in HCC461 cells (WST-1); type: cell-based; conditions: 48 hrs incubation
Description: HCC461 cells plated in 96 well plates at 5×10^4/ml cell density are treated with 50× synthetic Smac mimetic compounds (final concentration range between 30 uM and 0.001 uM). After 48 hrs incubation at 37° C. and 5% CO2 viability of the cells are measured using Cell Proliferation Reagent WST-1 assay kit (Roche Cat #11 644 807 001).
WST-1 assay principle: The tetrazolium salts are cleaved to formazan by cellular enzymes. An expansion in the number of viable cells results in an increase in the overall activity of mitochondrial dehydrogenases in the samples. This augmentation in the enzyme activity leads to an increase in the amount of formazan dye formed, which directly correlates to the number of metabolically active cells in the culture. Quantification of the formazan dye produced by metabolically active cells by using a microplate (ELISA) reader at 420-480 nm.

[1] = system: Caspase3 activity in Hela S100 (blocked by IAPs); assay: In vitro caspase-3 activation assay in Hela S100; type: biochemical; conditions: 100 nM compound, activity compared with reference compound, Table 1 experiment
Description: Caspase3 in most cell extracts can be activated by the addition of 1 mM dATP through the mitochondria caspase pathway. […] Taking advantage of this feature, we use 100 nM of synthetic Smac mimetic compound to test its ability to eliminate IAPs in the Hela S100 and fully induce Caspase3 activity. The In Vitro Caspase3 assay is carried out at 30° C., incubating 100 nM compounds with 30 ug of Hela S100, 1 mM dATP, 10 uM Caspase3 fluorogenic substrate (Caspase3 Substrate II, Fluorogenic, #235425 from Calbiochem). The readout is caspase-3 activity represented by relative fluorogenic unit, which is recorded kinetically. The slope in linear region of the curve for each compound is calculated.
Percent activity data is presented by comparing activity of the test compound with activity of the reference compound in Caspase-3 activation assay in vitro. The ratio of each synthetic compound's slope versus the slope of control reflects in vitro caspase-3 activation ability of compounds.

[2] = biological target: truncated XIAP containing only BIR1, BIR2, and BIR3 domains (Homo sapiens, UniProt P98170); assay: Fluorescent polarization (FP) assay; type: binding
truncated XIAP containing only BIR1, BIR2, and BIR3 domains, sequence (P98170 26-330 limits assumed): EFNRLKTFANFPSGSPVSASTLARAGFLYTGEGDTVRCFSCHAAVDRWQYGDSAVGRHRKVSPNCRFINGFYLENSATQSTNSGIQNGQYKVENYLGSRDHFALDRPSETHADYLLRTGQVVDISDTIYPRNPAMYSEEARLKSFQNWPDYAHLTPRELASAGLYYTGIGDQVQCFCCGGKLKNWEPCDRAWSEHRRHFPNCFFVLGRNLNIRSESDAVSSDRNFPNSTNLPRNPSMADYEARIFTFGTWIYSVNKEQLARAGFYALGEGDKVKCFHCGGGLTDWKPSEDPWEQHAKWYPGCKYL
Description: Increasing concentrations of Smac compounds are incubated with 2 nM of labeled peptide (fluorescein labeled 10mer peptide with AVPI 4 amino acids at its N terminus-Alexa Fluor 488) and truncated XIAP containing only BIR1, BIR2, and BIR3 domains at room temperature for 1 hour. Fluorescence reading, indicative of the bound portion of the labeled peptide, is measured in milipolarization units (mP). The more compound added, less fluorescein labeled peptide bind to the protein due to the competitive binding and less fluorescence signal is released.
Based on this principle, we obtain the Ki value that evaluates compound's binding affinity.

[3] = HCC461, 48 h, Table 1 experiment
[4] = HCC461, 48 h, Table 2 experiment

Structure (SMILES)	IC50 (HCC461 cells; [3])	Ki ([2]; Table 1 experiment)	IC50 (HCC461 cells; [4])	Ki ([2]; Table 2 experiment)	also measured
CN[C@@H](C)C(=O)NC(C(=O)C1C[C@@H](NC(=O)C2CCCC2C(=O)N[C@H]2CC(C(=O)N[C@@H]3CCCc4ccccc43)N(C(=O)[C@@H](NC(=O)[C@H](C)NC)C(C)(C)C)C2)CC1C(=O)N[C@@H]1CCCc2ccccc21)C(C)(C)C.Cl.Cl (single isomer, unassigned) [compound 17]	0.019 µM	0.5 µM	–	–	% Activity at 100 nM ([1]; 0.1 µM): 92%
CN[C@@H](C)C(=O)NC(C(=O)C1C[C@@H](NC(=O)C2CCCC2C(=O)N[C@H]2CC(C(=O)N[C@@H]3CCCc4ccccc43)N(C(=O)[C@@H](NC(=O)[C@H](C)NC)C(C)(C)C)C2)CC1C(=O)N[C@@H]1CCCc2ccccc21)C(C)(C)C.Cl.Cl (single isomer, unassigned) [compound 18]	–	0.35 µM	–	–	IC50 (HCC461 cells; Table 1 experiment): 0.033 µM; % Activity at 100 nM ([1]; 0.1 µM): 107%
CN[C@@H](C)C(=O)N[C@@H](CC#CC#CC[C@H](NC(=O)[C@H](C)NC)C(=O)N1CCC[C@H]1C(=O)N[C@@H]1CCCc2ccccc21)C(=O)N1CCC[C@H]1C(=O)N[C@@H]1CCCc2ccccc21.Cl.Cl [Ref cpd, reference compound]	0.082 µM	0.35 µM	0.063 µM	0.15 µM	% Activity at 100 nM [1]: 100%
CN[C@@H](C)C(=O)N[C@H](C(=O)N1C[C@@H](NC(=O)c2ccc(C(=O)N[C@H]3C[C@@H](C(=O)N[C@@H]4CCCc5ccccc54)N(C(=O)[C@@H](NC(=O)[C@H](C)NC)C(C)(C)C)C3)s2)C[C@H]1C(=O)N[C@@H]1CCCc2ccccc21)C(C)(C)C.Cl.Cl [compound 12]	0.002 µM	0.4 µM	–	–	% Activity at 100 nM [1]: 104%
CN[C@@H](C)C(=O)N[C@H](C(=O)N1C[C@@H](NS(=O)(=O)c2cccc(S(=O)(=O)N[C@H]3C[C@@H](C(=O)N[C@@H]4CCCc5ccccc54)N(C(=O)[C@@H](NC(=O)[C@H](C)NC)C(C)(C)C)C3)c2)C[C@H]1C(=O)N[C@@H]1CCCc2ccccc21)C(C)(C)C.Cl.Cl [compound 13]	0.026 µM	0.3 µM	–	–	% Activity at 100 nM [1]: 108%
CN[C@@H](C)C(=O)N[C@H](C(=O)N1C[C@@H](NC(=O)c2cc(O)cc(C(=O)N[C@H]3C[C@@H](C(=O)N[C@@H]4CCCc5ccccc54)N(C(=O)[C@@H](NC(=O)[C@H](C)NC)C(C)(C)C)C3)c2)C[C@H]1C(=O)N[C@@H]1CCCc2ccccc21)C(C)(C)C.Cl.Cl [compound 14]	0.026 µM	0.44 µM	–	–	% Activity at 100 nM [1]: 86%
CN[C@@H](C)C(=O)N[C@H](C(=O)N1C[C@@H](NC(=O)c2cc(C(=O)N[C@H]3C[C@@H](C(=O)N[C@@H]4CCCc5ccccc54)N(C(=O)[C@@H](NC(=O)[C@H](C)NC)C(C)(C)C)C3)[nH]n2)C[C@H]1C(=O)N[C@@H]1CCCc2ccccc21)C(C)(C)C.Cl.Cl [compound 15]	0.009 µM	0.45 µM	–	–	% Activity at 100 nM [1]: 116%
CN[C@@H](C)C(=O)N[C@H](C(=O)N1C[C@@H](NC(=O)CN(C)CC(=O)N[C@H]2C[C@@H](C(=O)N[C@@H]3CCCc4ccccc43)N(C(=O)[C@@H](NC(=O)[C@H](C)NC)C(C)(C)C)C2)C[C@H]1C(=O)N[C@@H]1CCCc2ccccc21)C(C)(C)C.Cl.Cl.Cl [compound 16]	0.074 µM	0.4 µM	–	–	% Activity at 100 nM [1]: 115%
C#CC[C@H](NC(=O)[C@H](C)NC)C(=O)N1C[C@@H](NC(=O)c2cccc(C(=O)N[C@H]3C[C@@H](C(=O)N[C@@H]4CCCc5ccccc54)N(C(=O)[C@H](CC#C)NC(=O)[C@H](C)NC)C3)n2)C[C@H]1C(=O)N[C@@H]1CCCc2ccccc21 [compound 20]	0.222 µM	–	–	–	–
CN[C@@H](C)C(=O)N[C@H](C(=O)N1C[C@@H](NC(=O)[C@H](O)[C@@H](O)C(=O)N[C@H]2C[C@@H](C(=O)N[C@@H]3CCCc4ccccc43)N(C(=O)[C@@H](NC(=O)[C@H](C)NC)C(C)(C)C)C2)C[C@H]1C(=O)N[C@@H]1CCCc2ccccc21)C(C)(C)C [compound 21]	0.101 µM	–	–	–	–
C#CC[C@H](NC(=O)[C@H](C)NC)C(=O)N1C[C@@H](NC(=O)[C@H](O)[C@@H](O)C(=O)N[C@H]2C[C@@H](C(=O)N[C@@H]3CCCc4ccccc43)N(C(=O)[C@H](CC#C)NC(=O)[C@H](C)NC)C2)C[C@H]1C(=O)N[C@@H]1CCCc2ccccc21 [compound 22]	0.263 µM	–	–	–	–
CN[C@@H](C)C(=O)NC(C(=O)C1C[C@@H](NC(=O)C2CCCC2C(=O)N[C@H]2CC(C(=O)N[C@@H]3CCCc4ccccc43)N(C(=O)[C@@H](NC(=O)[C@H](C)NC)C(C)(C)C)C2)CC1C(=O)N[C@@H]1CCCc2ccccc21)C(C)(C)C (stereo partly shown) [compound 23]	–	–	–	0.05 µM	IC50 (HCC461 cells; Table 2 experiment): 0.002 µM
CN[C@@H](C)C(=O)NC(C(=O)C1C[C@@H](NC(=O)C2CCCC2C(=O)N[C@H]2CC(C(=O)N[C@@H]3CCCc4ccccc43)N(C(=O)[C@@H](NC(=O)[C@H](C)NC)C(C)(C)C)C2)CC1C(=O)N[C@@H]1CCCc2ccccc21)C(C)(C)C (stereo partly shown) [compound 24]	–	–	–	0.35 µM	IC50 (HCC461 cells; Table 2 experiment): 0.021 µM
CN[C@@H](C)C(=O)NC(C(=O)C1C[C@@H](NC(=O)C2CCCC(C(=O)N[C@H]3CC(C(=O)N[C@@H]4CCCc5ccccc54)N(C(=O)[C@@H](NC(=O)[C@H](C)NC)C(C)(C)C)C3)C2)CC1C(=O)N[C@@H]1CCCc2ccccc21)C(C)(C)C (stereo partly shown) [compound 25]	–	–	0.024 µM	0.25 µM	–
CN[C@@H](C)C(=O)N[C@H](C(=O)N1C[C@@H](NC(=O)CC(C)(O)CC(=O)N[C@H]2C[C@@H](C(=O)N[C@@H]3CCCc4ccccc43)N(C(=O)[C@@H](NC(=O)[C@H](C)NC)C(C)(C)C)C2)C[C@H]1C(=O)N[C@@H]1CCCc2ccccc21)C(C)(C)C [compound 26]	–	–	0.023 µM	0.32 µM	–
CN[C@@H](C)C(=O)N[C@H](C(=O)N1C[C@@H](NC(=O)COCC(=O)N[C@H]2C[C@@H](C(=O)N[C@@H]3CCCc4ccccc43)N(C(=O)[C@@H](NC(=O)[C@H](C)NC)C(C)(C)C)C2)C[C@H]1C(=O)N[C@@H]1CCCc2ccccc21)C(C)(C)C [compound 27]	–	–	0.082 µM	0.25 µM	–
CN[C@@H](C)C(=O)N[C@H](C(=O)N1C[C@@H](NC(=O)c2c(F)c(F)c(F)c(C(=O)N[C@H]3C[C@@H](C(=O)N[C@@H]4CCCc5ccccc54)N(C(=O)[C@@H](NC(=O)[C@H](C)NC)C(C)(C)C)C3)c2F)C[C@H]1C(=O)N[C@@H]1CCCc2ccccc21)C(C)(C)C [compound 28]	–	–	0.002 µM	0.23 µM	–
CN[C@@H](C)C(=O)N[C@H](C(=O)N1C[C@@H](NC(=O)C23CC4CC(C2)CC(C(=O)N[C@H]2C[C@@H](C(=O)N[C@@H]5CCCc6ccccc65)N(C(=O)[C@@H](NC(=O)[C@H](C)NC)C(C)(C)C)C2)(C4)C3)C[C@H]1C(=O)N[C@@H]1CCCc2ccccc21)C(C)(C)C [compound 29]	–	–	0.005 µM	0.24 µM	–
CN[C@@H](C)C(=O)N[C@H](C(=O)N1C[C@@H](NC(=O)[C@H]2CC[C@@](C)(C(=O)N[C@H]3C[C@@H](C(=O)N[C@@H]4CCCc5ccccc54)N(C(=O)[C@@H](NC(=O)[C@H](C)NC)C(C)(C)C)C3)C2(C)C)C[C@H]1C(=O)N[C@@H]1CCCc2ccccc21)C(C)(C)C [compound 30]	–	–	0.008 µM	0.29 µM	–
CN[C@@H](C)C(=O)N[C@H](C(=O)N1C[C@@H](NC(=O)[C@@H]2CC[C@](C)(C(=O)N[C@H]3C[C@@H](C(=O)N[C@@H]4CCCc5ccccc54)N(C(=O)[C@@H](NC(=O)[C@H](C)NC)C(C)(C)C)C3)C2(C)C)C[C@H]1C(=O)N[C@@H]1CCCc2ccccc21)C(C)(C)C [compound 31]	–	–	0.003 µM	0.34 µM	–
CN[C@@H](C)C(=O)N[C@H](C(=O)N1C[C@@H](NC(=O)c2cc(N)cc(C(=O)N[C@H]3C[C@@H](C(=O)N[C@@H]4CCCc5ccccc54)N(C(=O)[C@@H](NC(=O)[C@H](C)NC)C(C)(C)C)C3)c2)C[C@H]1C(=O)N[C@@H]1CCCc2ccccc21)C(C)(C)C [compound 32]	–	–	0.015 µM	0.23 µM	–
